Assay results as given in patent publication US20100035867A1 (priority 2006, published 2010).
“And” between values parts separate entries of the source, which are not always exact repeats. Equal values may be shown once.

What was measured:
adenylyl cyclase = type: cell-based, human
[1] = test system: adenylyl cyclase or guanylyl cyclase; type: cell-based; conditions: read-out: typical IC50
[2] = target: T1, membrane guanylyl cyclase (guanylyl cyclase type B, GC-B) (Homo sapiens, UniProt P20594); assay: CNP-induced cyclic GMP accumulation in BE-2(C) neuroblastoma cells
T1 sequence (P20594 23-1047): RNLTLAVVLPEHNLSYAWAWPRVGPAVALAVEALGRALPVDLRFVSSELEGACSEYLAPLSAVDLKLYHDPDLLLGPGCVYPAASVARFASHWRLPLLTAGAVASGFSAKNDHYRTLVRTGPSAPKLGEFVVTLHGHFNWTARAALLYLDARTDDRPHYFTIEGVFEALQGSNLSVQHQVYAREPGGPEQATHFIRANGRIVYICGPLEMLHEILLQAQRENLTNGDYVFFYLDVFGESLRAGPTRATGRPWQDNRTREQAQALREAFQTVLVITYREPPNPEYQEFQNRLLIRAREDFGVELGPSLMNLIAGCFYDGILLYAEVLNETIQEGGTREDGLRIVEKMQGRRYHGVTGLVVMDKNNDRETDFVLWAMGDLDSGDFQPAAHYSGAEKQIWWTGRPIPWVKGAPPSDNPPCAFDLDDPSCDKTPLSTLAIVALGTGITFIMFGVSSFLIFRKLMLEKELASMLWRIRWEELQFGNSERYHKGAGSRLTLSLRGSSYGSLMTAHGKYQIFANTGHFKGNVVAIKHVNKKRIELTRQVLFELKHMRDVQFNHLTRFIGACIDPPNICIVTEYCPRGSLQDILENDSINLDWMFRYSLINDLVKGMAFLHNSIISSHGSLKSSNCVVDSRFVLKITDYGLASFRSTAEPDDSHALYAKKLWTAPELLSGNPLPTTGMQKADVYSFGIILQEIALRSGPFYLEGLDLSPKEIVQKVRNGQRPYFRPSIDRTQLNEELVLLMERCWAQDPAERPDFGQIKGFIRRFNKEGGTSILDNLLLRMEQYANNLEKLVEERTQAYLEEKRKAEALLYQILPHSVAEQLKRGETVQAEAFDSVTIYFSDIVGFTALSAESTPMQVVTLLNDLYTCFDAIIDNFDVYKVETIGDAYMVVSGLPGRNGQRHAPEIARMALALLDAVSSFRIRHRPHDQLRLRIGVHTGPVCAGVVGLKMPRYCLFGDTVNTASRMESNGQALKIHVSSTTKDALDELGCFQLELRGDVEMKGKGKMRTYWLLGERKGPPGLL

[3] = target: guanylyl cyclase type C (GC-C) (Homo sapiens, UniProt P25092); assay: Guanylin-induced activation of GC-C in T84 cells (cyclic GMP accumulation)
[4] = target: T2, soluble guanylyl cyclase (sGC) (Rattus norvegicus, UniProt P19686+P20595); assay: Nitric oxide donor-induced cyclic GMP accumulation in RFL-6 fibroblast cells; conditions: RFL-6 cells, 10 μM benzotrifuroxan, 50 μM compound
T2 sequence (P20595 1-619): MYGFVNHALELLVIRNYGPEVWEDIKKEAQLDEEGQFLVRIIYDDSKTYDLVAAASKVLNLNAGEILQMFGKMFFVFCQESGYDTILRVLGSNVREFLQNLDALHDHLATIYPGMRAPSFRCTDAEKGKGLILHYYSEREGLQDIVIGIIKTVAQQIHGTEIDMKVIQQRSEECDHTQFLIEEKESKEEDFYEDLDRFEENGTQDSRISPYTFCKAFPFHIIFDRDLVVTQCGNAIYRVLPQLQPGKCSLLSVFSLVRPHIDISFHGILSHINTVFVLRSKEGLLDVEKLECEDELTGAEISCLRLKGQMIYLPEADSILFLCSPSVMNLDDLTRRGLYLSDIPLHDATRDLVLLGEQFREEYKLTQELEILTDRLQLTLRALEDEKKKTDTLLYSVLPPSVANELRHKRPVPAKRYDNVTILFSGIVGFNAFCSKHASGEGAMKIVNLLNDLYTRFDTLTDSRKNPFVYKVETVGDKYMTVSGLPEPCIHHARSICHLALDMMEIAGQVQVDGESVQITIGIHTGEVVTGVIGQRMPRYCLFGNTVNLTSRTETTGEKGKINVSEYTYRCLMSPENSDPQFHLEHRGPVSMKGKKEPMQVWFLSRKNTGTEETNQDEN
T2 sequence (P19686 1-690): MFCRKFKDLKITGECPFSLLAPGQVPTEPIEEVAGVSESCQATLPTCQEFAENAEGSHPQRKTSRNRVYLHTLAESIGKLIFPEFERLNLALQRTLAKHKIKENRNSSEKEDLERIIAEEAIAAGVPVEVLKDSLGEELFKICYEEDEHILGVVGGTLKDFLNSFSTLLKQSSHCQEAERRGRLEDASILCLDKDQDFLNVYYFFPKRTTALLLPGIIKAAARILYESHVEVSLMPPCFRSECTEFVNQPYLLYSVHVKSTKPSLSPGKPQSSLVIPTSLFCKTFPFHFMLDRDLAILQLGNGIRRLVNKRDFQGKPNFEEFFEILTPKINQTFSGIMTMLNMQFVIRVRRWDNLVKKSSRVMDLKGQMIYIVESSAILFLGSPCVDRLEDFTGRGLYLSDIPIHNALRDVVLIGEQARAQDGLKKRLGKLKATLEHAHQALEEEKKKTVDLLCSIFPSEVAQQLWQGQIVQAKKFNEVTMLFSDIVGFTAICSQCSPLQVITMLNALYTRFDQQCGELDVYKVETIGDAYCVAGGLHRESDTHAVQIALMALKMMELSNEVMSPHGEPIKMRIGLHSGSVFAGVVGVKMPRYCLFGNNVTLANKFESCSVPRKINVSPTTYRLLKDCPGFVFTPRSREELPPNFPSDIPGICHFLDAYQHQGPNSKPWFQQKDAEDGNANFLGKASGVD

Sequence of guanylyl cyclase type C (GC-C) (P25092 24-1073): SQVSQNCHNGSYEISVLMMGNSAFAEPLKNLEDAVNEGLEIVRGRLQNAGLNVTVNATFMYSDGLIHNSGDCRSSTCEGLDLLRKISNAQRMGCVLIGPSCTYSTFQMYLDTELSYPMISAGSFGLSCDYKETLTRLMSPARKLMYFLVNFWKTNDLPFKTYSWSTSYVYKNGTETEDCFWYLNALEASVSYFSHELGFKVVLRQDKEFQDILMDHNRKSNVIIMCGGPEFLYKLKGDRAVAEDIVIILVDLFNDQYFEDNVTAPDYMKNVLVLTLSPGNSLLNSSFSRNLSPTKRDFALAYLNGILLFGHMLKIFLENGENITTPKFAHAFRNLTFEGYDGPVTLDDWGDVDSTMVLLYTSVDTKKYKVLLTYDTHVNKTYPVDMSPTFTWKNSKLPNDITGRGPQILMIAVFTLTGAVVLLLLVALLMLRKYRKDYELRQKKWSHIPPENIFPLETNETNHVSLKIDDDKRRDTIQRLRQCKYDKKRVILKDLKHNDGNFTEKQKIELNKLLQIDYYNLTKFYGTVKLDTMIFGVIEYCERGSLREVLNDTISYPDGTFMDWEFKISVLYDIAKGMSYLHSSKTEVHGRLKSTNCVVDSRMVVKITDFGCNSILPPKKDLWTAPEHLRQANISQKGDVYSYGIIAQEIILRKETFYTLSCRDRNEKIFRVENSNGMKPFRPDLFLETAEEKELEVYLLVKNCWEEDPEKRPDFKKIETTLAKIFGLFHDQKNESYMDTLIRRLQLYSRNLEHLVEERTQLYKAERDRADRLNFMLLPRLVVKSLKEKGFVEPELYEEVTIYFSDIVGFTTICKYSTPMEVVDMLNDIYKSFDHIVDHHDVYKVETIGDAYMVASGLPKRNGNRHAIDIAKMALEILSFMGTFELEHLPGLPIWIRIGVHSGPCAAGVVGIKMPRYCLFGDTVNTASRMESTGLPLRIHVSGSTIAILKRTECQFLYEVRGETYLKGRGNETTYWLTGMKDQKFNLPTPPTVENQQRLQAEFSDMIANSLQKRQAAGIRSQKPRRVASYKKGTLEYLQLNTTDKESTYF

Cn1c2c(c(=O)n(C)c1=O)C(c1cccc(Br)c1)C1=C(N2)c2ccccc2C1=O (stereo not shown) [compound IIb]
inhibition of cyclic AMP accumulation (adenylyl cyclase): 41.3% and 58.2% | IC50 [1]: ~5 µM | IC50 [2]: 11.2 µM | IC50 [3]: 7.2 µM | inhibition at 50 µM ([3]; T84, read-out: inhibition of guanylin-induced cyclic GMP): 58.9% | level of cyclic GMP ([3]; T84 cells, 500 nM guanylin, 50 μM compound, vehicle 124±13): 51±6 pmol/mg protein | inhibition of cyclic GMP accumulation (FIG. 6) [4]: inhibition
